Data on 13 molecules can be found in patent US12673041B2, “4-aminobut-2-enamide derivatives and salt thereof” (TAIHO PHARMACEUTICAL CO., LTD., priority 2019, dated 2026).

Test [1] concerns the target T1, GMPPNP-bound KRAS G12C protein and cRAF RAS-binding domain (cRAF-RBD) (Homo sapiens, UniProt P01116, G12C).
T1 construct: made in house; host or cells: E. coli
The experiment in a line: Inhibitory activity on interaction between KRAS G12C and cRAF (Alpha technology). In kind it is biochemical. The conditions noted are these: then cRAF-RBD, Alpha signal. Summed up: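 GMPPNP-loaded His-KRAS G12C (aa 1-169) preincubated 1 h at 25 °C with compound (pH 7.5 Tris, 1 mM MgCl2, TCEP, Tween 20), then cRAF-RBD (aa 50-132) and Alpha reagents added for 1.5 h at RT. Inhibition scaled between DMSO (0%) and GDP-bound KRAS (100%); IC50 by curve fitting.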

The target of test [2] is Gppcp-bound recombinant K-Ras4B G12C mutant protein (amino acids 1-169, C51S/C80L/C118S) (Homo sapiens, UniProt P01116, C118S/C51S/C80L/G12C). The test is described as follows: KRASG12C binding assay (LC-MS compound binding rate). Conditions: test compound final concentration 0.5 μM, 25° C., 1 hour. Summed up: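 Gppcp-bound K-Ras4B G12C (aa 1-169, C51S/C80L/C118S) at 50 nM in 1×TBS, 0.1 mM TCEP, 0.25 mM MgCl2, 50 μM Gppcp was incubated 1 hour at 25° C with compound at 0.5 μM final. Intact-protein LC-MS gave binding rate as single-adduct signal over total KRAS signal, graded A (≥80%) to E (<20%).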

For the next test, the system named is MIA PaCa-2 cells. The test is described as follows: Growth inhibition activity on KRAS-G12C mutant cell line (MIA PaCa-2). Conditions: Homo sapiens, 72 h; MIA PaCa-2, 3-day culture, CellTiter-Glo 3D. In kind it is cell-based. The procedure:
MIA PaCa-2 cells (given by Sumitomo Dainippon Pharma Co., Ltd.), which are a KRAS-G12C mutant human pancreas cancer cell line, were suspended in a 10% fetal bovine serum-containing RPMI1640 medium (manufactured by Fujifilm Wako Pure Chemical Corporation.). The cell suspension was seeded into each well of a 384-well U bottom microplate and cultured in an incubator containing 5% CO2 gas at 37° C. for 1 day. The compounds obtained in the “Preparation of Compounds” section were used as test compounds and were dissolved in DMSO, respectively, and each test compound was diluted with DMSO to give a concentration 500 times the final concentration. The resultant solution of the test compound in DMSO was diluted with the medium used for suspending cells and added to each well of the cell-culture plate to give a DMSO final concentration of 0.2%, followed by culture in an incubator containing 5% CO2 gas at 37° C. for another 3 days. The cell count after 3-day culture in the presence of the test compound was measured using CellTiter-Glo 3D Reagent (manufactured by Promega Corporation). All wells were added with CellTiter-Glo 3D Reagent and mixed for 10 minutes. 30 minutes after mixing, luminescence was measured by a plate reader. The growth inhibition rate was calculated from the following equation, and the concentration of the test compound at which 50% inhibition was achieved (IC50 (nM)) was determined. […] Growth Inhibition Rate (%)=(C−T)/(C)×100 • T: the emission intensity in a well into which a test compound was added. • C: the emission intensity in a well into which a test compound was not added.

[3] abbreviates: GMPPNP-bound KRAS G12C incubated with compound at 25° C. for 1 hour, read-out: IC50.

Read-outs that look alike come from different tables or passages of the source.

Regarding `CO[C@H]1CC[C@H](NC/C=C/C(=O)Nc2ccc(C(=O)c3ccc4c(-c5cc6nc(C)n(C)c6cc5C(F)(F)F)cccn34)cc2C#N)CC1` [Example 7, (E)-N-(2-cyano-4-(8-(1,2-dimethyl-6-(trifluoromethyl)-1H-benzo[d]imidazol-5-yl)indolizine-3-carbonyl)phenyl)-4-(((1r,4r)-4-methoxycyclohexyl)amino)but-2-enamide], the IC50 in test [1] (setting [3]) is 35 nM; in the test with MIA PaCa-2 cells, 49 nM. In test [2], the binding rate result is listed as “A (A binding rate of 80% or more is rated “A”)”.
With `Cn1cnc2cc(-c3cccn4c(C(=O)c5cc(F)c(NC(=O)/C=C/CNC(C)(C)C)c(F)c5)ccc34)c(C(F)(F)F)cc21` [Example 49, (2E)-4-(tert-Butylamino)-N-(2,6-difluoro-4-{8-[1-methyl-6-(trifluoromethyl)-1H-1,3-benzodiazol-5-yl]indolizine-3-carbonyl}phenyl)but-2-enamide], the IC50 in test [1] (setting [3]) stood at 31 nM; in the test with MIA PaCa-2 cells it was 75 nM. Besides, the binding rate result in test [2] is reported as “A (A binding rate of 80% or more is rated “A”)”.
For the molecule `Cc1cc2c(cc1-c1cccn3c(C(=O)c4cc(F)c(NC(=O)/C=C/CNC(C)(C)C)c(F)c4)ccc13)ncn2C` [Example 72, (E)-4-(tert-butylamino)-N-(4-(8-(1,6-dimethyl-1H-benzo[d]imidazol-5-yl)indolizine-3-carbonyl)-2,6-difluorophenyl)but-2-enamide], the IC50 was 34 nM in test [1] (setting [3]) and 200 nM in the test with MIA PaCa-2 cells. Moreover, the binding rate entry in test [2] is reported as “A (A binding rate of 80% or more is rated “A”)”.
Take `CO[C@H]1CC[C@H](N(C)C/C=C/C(=O)Nc2ccc(C(=O)c3ccc4c(-c5cc6ncn(C)c6cc5C(F)(F)F)cccn34)cc2C#N)CC1` [Example 78, (E)-N-(2-cyano-4-(8-(1-methyl-6-(trifluoromethyl)-1H-benzo[d]imidazol-5-yl)indolizine-3-carbonyl)phenyl)-4-(((1r,4r)-4-methoxycyclohexyl)(methyl)amino)but-2-enamide]: the IC50 in test [1] (setting [3]) is 96 nM; with MIA PaCa-2 cells it was 400 nM. The binding rate entry in test [2] is “C (a binding rate of 40% or more and less than 60% is rated “C”)”.
With `CO[C@H]1CC[C@H](NC/C=C/C(=O)Nc2c(F)cc(C(=O)c3ccc4c(-c5cc6ncn(C)c6cc5C)cccn34)cc2F)CC1` [Example 73, (E)-N-(4-(8-(1,6-dimethyl-1H-benzo[d]imidazol-5-yl)indolizine-3-carbonyl)-2,6-difluorophenyl)-4-(((1r,4r)-4-methoxycyclohexyl)amino)but-2-enamide], the IC50 in test [1] (setting [3]) was 32 nM; with MIA PaCa-2 cells it was 280 nM. Further, the binding rate entry in test [2] is given as “A (A binding rate of 80% or more is rated “A”)”.
In the case of `Cn1cnc2cc(-c3cccn4c(C(=O)c5cc(F)c(NC(=O)/C=C/CNC(C)(C)C)c(F)c5)cnc34)c(C(F)(F)F)cc21` [Example 67, (E)-4-(tert-butylamino)-N-(2,6-difluoro-4-(8-(1-methyl-6-(trifluoromethyl)-1H-benzo[d]imidazol-5-yl)imidazo[1,2-a]pyridine-3-carbonyl)phenyl)but-2-enamide], the figures for the IC50 (in test [1] (setting [3]); in the test on MIA PaCa-2 cells) were 63 nM and 560 nM, respectively. Further, the binding rate result in test [2] was “B (a binding rate of 60% or more and less than 80% is rated “B”)”.
On to `CO[C@H]1CC[C@H](NC/C=C/C(=O)Nc2ccc(C(=O)c3cn(C)c4c(-c5cc6ncn(C)c6cc5C(F)(F)F)cccc34)cc2C#N)CC1` [Example 38, (E)-N-(2-cyano-4-(1-methyl-7-(1-methyl-6-(trifluoromethyl)-1H-benzo[d]imidazol-5-yl)-1H-indole-3-carbonyl)phenyl)-4-(((1r,4r)-4-methoxycyclohexyl)amino)but-2-enamide], for which the IC50 in test [1] (IC50, GMPPNP-bound KRAS G12C incubated with compound at 25° C. for 1 hour) is 67 nM; in the test with MIA PaCa-2 cells it was 88 nM. Besides, in test [2], the binding rate entry is listed as “A (A binding rate of 80% or more is rated “A”)”.
Take `CN(C)C/C=C/C(=O)Nc1ccc(C(=O)c2ccc3c(-c4cc5ncn(C)c5cc4C(F)(F)F)cccn23)cc1C#N` [Example 66, (E)-N-(2-cyano-4-(8-(1-methyl-6-(trifluoromethyl)-1H-benzo[d]imidazol-5-yl)indolizine-3-carbonyl)phenyl)-4-(dimethylamino)but-2-enamide]: the IC50 in test [1] (setting [3]) is 84 nM; with MIA PaCa-2 cells it was 240 nM. For the same molecule, in test [2], the binding rate entry is “C (a binding rate of 40% or more and less than 60% is rated “C”)”.
Consider `COc1cc2c(cc1-c1cccn3c(C(=O)c4ccc(NC(=O)/C=C/CN[C@H]5CC[C@H](OC)CC5)c(C#N)c4)ccc13)ncn2C` [Example 81, (E)-N-(2-cyano-4-(8-(6-methoxy-1-methyl-1H-benzo[d]imidazol-5-yl)indolizine-3-carbonyl)phenyl)-4-(((1r,4r)-4-methoxycyclohexyl)amino)but-2-enamide], for which the IC50 in test [1] (setting [3]) is 21 nM; in the test with MIA PaCa-2 cells it was 70 nM. For the same molecule, the binding rate entry in test [2] is “A (A binding rate of 80% or more is rated “A”)”.
For `CCc1nc2cc(-c3cccc4c3CCN4C(=O)c3ccc(NC(=O)/C=C/CNC4CCN(C(C)C)CC4)c(C#N)c3)c(C(F)(F)F)cc2n1C` [Example 30, (E)-N-(2-cyano-4-(4-(2-ethyl-1-methyl-6-(trifluoromethyl)-1H-benzo[d]imidazol-5-yl)indoline-1-carbonyl)phenyl)-4-((1-isopropylpiperidin-4-yl)amino)but-2-enamide], the IC50 amounted to 75 nM in test [1] (setting [3]) and 370 nM in the test with MIA PaCa-2 cells. The binding rate entry in test [2] is “A (A binding rate of 80% or more is rated “A”)”.
With `CCc1nc2cc(-c3cccn4c(C(=O)c5ccc(NC(=O)/C=C/CN[C@H]6CC[C@H](OC)CC6)c(C#N)c5)ccc34)c(C(F)(F)F)cc2n1C` [Example 33, (E)-N-(2-cyano-4-(8-(2-ethyl-1-methyl-6-(trifluoromethyl)-1H-benzo[d]imidazol-5-yl)indolizine-3-carbonyl)phenyl)-4-(((1r,4r)-4-methoxycyclohexyl)amino)but-2-enamide], the results for the IC50 (in test [1] (setting [3]); in the test with MIA PaCa-2 cells) were 45 nM and 48 nM, respectively. The binding rate result in test [2] is “A (A binding rate of 80% or more is rated “A”)”.
Turning to `CO[C@H]1CC[C@H](NC/C=C/C(=O)Nc2ccc(C(=O)c3ccc4c(-c5c(Cl)cc6c(ncn6C)c5Cl)cccn34)cc2C#N)CC1` (single isomer, unassigned) [Example 62, (E)-N-(2-cyano-4-(8-(4,6-dichloro-1-methyl-1H-benzo[d]imidazol-5-yl)indolizine-3-carbonyl)phenyl)-4-(((1r,4r)-4-methoxycyclohexyl)amino)but-2-enamide], the IC50 came to 57 nM in test [1] (setting [3]) and 43 nM with MIA PaCa-2 cells. In addition, the binding rate entry in test [2] was “A (A binding rate of 80% or more is rated “A”)”.
In the case of `COc1cccc(Cl)c1-c1cccn2c(C(=O)c3ccc(NC(=O)/C=C/CN[C@H]4CC[C@H](OC)CC4)c(C#N)c3)ccc12` [Example 41, (E)-N-(4-(8-(2-chloro-6-methoxyphenyl)indolizine-3-carbonyl)-2-cyanophenyl)-4-(((1r,4r)-4-methoxycyclohexyl)amino)but-2-enamide], the IC50 in test [1] (setting [3]) was found to be 85 nM; in the test with MIA PaCa-2 cells, 370 nM. In addition, the binding rate result in test [2] is “A (A binding rate of 80% or more is rated “A”)”.

Usually IC50 stands for the point on the concentration scale where inhibition reaches its midpoint.
